Assays:
Assay type in all cases: binding, human
antibodies to HCV [1] = assay: NS-1 peptide ELISA, Panel II (asymptomatic individuals, mainland China and Taiwan); conditions: NS-1 peptides; Panel II (CH1-CH7); relative to pep1 (231C)
Experimental: Wells of 96-well plates were coated for 1 hour at 37° C. with each of the 16 peptides (designated as peptides 241A-C, 231A-E, 232A-D, 233C, 234A-C), synthesized according to sequences derived from the NS-1 region (Table 3A), at 5 ug/mL at 100 uL per well in 10 mM NaHCO3 buffer, pH 9.5. Each peptide's immunoreactivity was measured as previously described (see Example 1), using an 8 member serum panel (Panel I).
A panel of serum samples from individuals coming from regions in which hepatitis C is endemic, namely mainland China and Taiwan, were tested for evidence of reactivity to these NS-1 protein derived peptides. Twenty-four samples were chosen from individuals who had no recognizable symptoms of non-A, non-B hepatitis and for whom the peptide based HCV EIA, Format C, as described in Example 11, was nonreactive. Seven of the 24 samples (29%) were reactive against one or more peptides from the NS-1 region, indicative of the presence of long term protective antibodies responsive to this region. This 7 member panel (designated as Panel II, CH1-CH7) was used to further characterize these NS-1 peptides for their immunoreactivity.
The peptide with the greatest reactivity against the serum Panel II again was pep1 (designated 231c in Table 3A). Using this peptide as a standard, the relative immunoreactivity for each of the other 15 peptides from the NS-1 region are calculated in Table 3A.

antibodies to HCV [2] = assay: NS-1 peptide ELISA, early and late HCV infection panels
Experimental: In addition, all sixteen NS-1 peptides were tested on panels of samples representing HCV-antibody positive donors (n=9) in an early stage of infection, namely plasmapheresis donors with the first occurrence of an ALT level >100 i.u./L, and those asymptomatic individuals (n=14) disqualified from blood donation because of a reactive result for anti-HIV or HBc, for whom the anti-HCV result probably represents a past infection.
These select panels were chosen from hundreds of HCV positive sera for their ability to recognize NS-1 antigens. For both groups, peptide designated as 232A (pep2) had the greatest immunoreactivity. Using pep2 as a standard, the relative immunoreactivity of each peptide was calculated (Table 3C).

antibodies to HCV [3] = assay: Envelope/NS-1 peptide ELISA, anti-HCV positive plasmapheresis donors with elevated ALT (Panel III); conditions: envelope/NS-1 peptides; Panel III (17 samples); peptide 254B as a standard
Experimental: To select a panel of samples with reactivity to peptides from the envelope/NS-1 region, 97 such samples from anti-HCV positive plasmapheresis donors with elevated ALT levels were tested with peptide 254B. […] 17 samples with the greatest reactivity with peptide 254B were chosen to form a third panel (Panel III) to screen for the immunoreactivity of the other 20 peptides from the envelope/NS-1 region. The individual absorbance values of each of the 17 samples on the four peptides with the greatest reactivity, i.e. 255C (pep7), 254B (pep8), 247B (pep9), and 246D (pep10), are listed in Table 8b.

antibodies to HCV [4] = assay: Peptide ELISA for relative immunoreactivity, 8 member HCV serum panel (Panel I)
Experimental: As an example to illustrate how relative (%) immunoreactivity for HCV synthetic peptides is measured, wells of 96-well plates are coated for 1 hour at 37° C., with each of the following peptides: IIH, V, VIIIE and pep11 at 5 ug/mL at 100 uL per well in 10 mM NaHCO3 buffer, pH 9.5. The peptide coated wells were then incubated with 250 uL of 3% by weight of gelatin in PBS in 37° C. for 1 hour to block non-specificprotein binding sites, followed by three washes with PBS containing 0.05% by volume of TWEEN 20 and then dried. The test specimens containing a panel of eight well-characterized HCV antibody positive patient sera were diluted with PBS containing 20% by volume normal goat serum, 1% by weight gelatin and 0.05% by volume TWEEN 20 at dilutions of 1:20 volume to volume, respectively. 200 uL of the diluted specimens were added to each of the wells and allowed to react for 15 minutes at 37° C.
The wells were then washed six times with 0.05% by volume TWEEN 20 in PBS in order to remove unbound antibodies. Horseradish peroxidase conjugated goat anti-human IgG was used as a second antibody tracer to bind with the HCV antibody-peptide antigen complex formed in positive wells. 100 uL of peroxidase labeled goat anti-human IgG at a dilution of 1:1800 in 1% by volume normal goat serum, 0.05% by volume TWEEN 20 in PBS was added to each well and incubated at 37° C. for another 15 minutes.
The wells were washed six times with 0.05% by volume TWEEN 20 PBS to remove unbound antibody and reacted with 100 uL of the substrate mixture containing 0.04% by weight orthophenylenediamine (OPD) and 0.12% by volume hydrogen peroxide in sodium citrate buffer, pH 5.0.
This substrate mixture was used to detect the peroxidase label by forming a colored product. Reactions were stopped by the addition of 100 uL of 1.0M H2 SO4 and the A492 mm measured. Results of relative immunoreactivity for each of the peptides obtained from this study are shown in Table A using peptide II H as the reference.

[5] = Early HCV Infection panel, n = 9
[6] = Late HCV Infection panel, n = 14
[7] = NS-5 peptides (Table 12), Panel I, pep11 as a standard
[8] = capsid peptides, Panel I, relative to VIIIE, coated at 5, 1 and 0.2 μg/mL
[9] = Arima clone 1 peptides, relative to peptide VIIIE

## ANGSGPDQRPYCWHYPPKPCGIVPAKSVCGPVYC [231B]
Antibodies to HCV [1]
  % IP: 96.4%
Antibodies to HCV [2]; [5]
  % Relative Immunoreactivity in comparison to Pep2 (232A): 30.9%
Antibodies to HCV [2]; [6]
  % Relative Immunoreactivity in comparison to Pep2 (232A): 46.7%

## CGSVFLIGQLFTFSPRRHWTTQGCNCSIYPGHITGHRMAWDMMMNWSPTA [254C]
Antibodies to HCV [3]
  % Relative Immunoreactivity: 16.7%

## CNESLNTGWLAGLIYQHKFNSSGCPERLASC [246B]
Antibodies to HCV [3]
  % Relative Immunoreactivity: 19.8%

## CPERLASCRPLTDFDQGWGPISYANGSGPDQRPYCWHYPPKPCGIVPAKSVC [241C]
Antibodies to HCV [1]
  % IP: 93.6%
Antibodies to HCV [2]; [5]
  % Relative Immunoreactivity in comparison to Pep2 (232A): 44.7%
Antibodies to HCV [2]; [6]
  % Relative Immunoreactivity in comparison to Pep2 (232A): 84.7%

## CQVPSPEFFTELDGVRLHRFAPPCKPLLREEVSFRVGLHEYPVGSQLPCEPEPD [311C]
Antibodies to HCV [4]; [7]
  % IP: 16.8%

## CVREGNVSRCWVAMTPTVATRDGKLPATQLRRHIDLLVGSATLC [244B]
Antibodies to HCV [3]
  % Relative Immunoreactivity: 5.8%

## CWVAMTPIVATRDGKLPATQLRRHIDLLVGSATLC [244A]
Antibodies to HCV [3]
  % Relative Immunoreactivity: 3.8%

## FTDNSSPPVVPQSFQVAHLHAPTGSGKSTKPAAYA [278B]
Antibodies to HCV [4]; NS-3 peptides (Table 4A), Panel I, relative to pep3 (279A)
  % IP: 1.4%

## GPRLGVRATRKTSERSQPRGRR [VIIIA]
Antibodies to HCV [4]; [8]
  % Relative Immunoreactivity: 32.7%

## IPKVRRPEGRTWAQPGYPWPLYGNEGCGWAGWLLSPRGSRPSWGPTDPRRRSRNLG [IXD]
Antibodies to HCV [4]; [8]
  % Relative Immunoreactivity: 58.9%

## KEKEKTATNNPGKNKKPRVGRIKNWNREGRKDAYQIRKRR [40 mer, reference compound]
Antibodies to HCV [4]; [9]
  % Relative Immunoreactivity: 21.1%

## KKQRRYKEKEKTATNNPGKNKKPRVGRIKNWNREGRKDAYQIRKRR (NDTHKKQRRYKEKEKTATNNPGKNKKPRVGRIKNWNREGRKDAYQIRKRR) [50 mer, reference compound]
Antibodies to HCV [4]; [9]
  % Relative Immunoreactivity: 17.8%

## KQNIQLINTNGSWHINSTALNCNESLNTGWLAGLIYQHKFNSSGCPERLASC [246E]
Antibodies to HCV [3]
  % Relative Immunoreactivity: 10.5%

## LRRLHQWISSECTTPCSGSWLRDIWDWICEVLSDFKTWLKAKLMPQL [314C]
Antibodies to HCV [4]; [7]
  % IP: 14.2%

## LWRVSAEEYVEIRQVGDFHYVIGMTTDNLKCPCQVPSP [312C]
Antibodies to HCV [4]; [7]
  % IP: 40.4%
